Measured values from patent US20130202653A1, “3-ARYL-3-HYDROXY-2-AMINO-PROPIONIC ACID AMIDES, 3-HETEROARYL-3-HYDROXY-2-AMINOPROPIONIC ACID AMIDES AND RELATED COMPOUNDS HAVING ANALGESIC AND/OR IMMUNO STIMULANT ACTIVITY” (Allergan, Inc., priority 2005, published 2013).
Counter-ions that a name gives are not always drawn. Blank lines part the entries; values can stand above or below the compound they belong to.

How the values were obtained:
[1] = system: tactile allodynia in the rat Chung model; assay: Chung model: reversal of tactile allodynia (von Frey hairs) after spinal nerve ligation; type: in vivo; conditions: peak at 60 min post dose
Excerpt: An art-accepted model or assay for measuring an analgesic effect of a compound in chronic pain (in particular peripheral neuropathy) is the model known as Kim and Chung 1992, Pain […], pp 355-363 (Chung model). This model involves the surgical ligation of the L5 (and optionally the L6) spinal nerves on one side in experimental animals. Rats recovering from the surgery gain weight and display a level of general activity similar to that of normal rats. However, these rats develop abnormalities of the foot, wherein the hindpaw is moderately everted and the toes are held together. More importantly, the hindpaw on the side affected by the surgery appears to become sensitive to low-threshold mechanical stimuli and will perceive pain instead of the faint sensation of touch. This sensitivity to normally non-painful touch, called “tactile allodynia”, develops within the first week after surgery and lasts for at least two months. The allodynia response includes lifting the affected hindpaw to escape from the stimulus, licking the paw and holding it in the air for many seconds. None of these responses is normally seen in the control group.
To produce the tactile allodynia, rats are anesthetized before surgery. The surgical site is shaved and prepared either with betadine or Novacaine. Incision is made from the thoracic vertebra X111 down toward the sacrum. Muscle tissue is separated from the spinal vertebra (left side) at the L4-S2 levels. The L6 vertebra is located and the transverse process is carefully removed with a small rongeur to expose the L4-L6 spinal nerves. The L5 and L6 spinal nerves are isolated and tightly ligated with 6-0 silk thread. The same procedure is done on the right side as a control, except no ligation of the spinal nerves is performed.
After a complete hemostasis is confirmed, the wounds are sutured. A small amount of antibiotic ointment is applied to the incised area, and the rat is transferred to the recovery plastic cage under a regulated heat-temperature lamp.
On the day of the experiment, at least seven days after the surgery, typically six rats per test group are administered the test drugs by intraperitoneal (i.p.) injection or oral gavage (p.o.). For i.p. administration, the compounds are formulated in H2O and given in a volume of 1 ml/kg body weight by injecting into the intraperitoneal cavity. For p.o. administration, the compounds are formulated in H2O and given in a volume of 1 ml/kg body weight using an 18-gauge, 3 inch gavage needle that is slowly inserted through the esophagus into the stomach.
Tactile allodynia is assessed via von Frey hairs, which are a series of fine hairs with incremental differences in stiffness. Rats are placed in a plastic cage with a wire mesh bottom and allowed to acclimate for approximately 30 minutes. To establish the pre-drug baseline, the von Frey hairs are applied perpendicularly through the mesh to the mid-plantar region of the rats' hindpaw with sufficient force to cause slight buckling and held for 6-8 seconds. The applied force has been calculated to range from 0.41 to 15.1 grams. If the paw is sharply withdrawn, it is considered a positive response. A normal animal will not respond to stimuli in this range, but a surgically ligated paw will be withdrawn in response to a 1-2 gram hair. The 50% paw withdrawal threshold is determined using the method of Dixon, W. J., Ann. Rev. Pharmacol. Toxicol. 20:441-462 (1980) hereby incorporated by reference. Tactile allodynia is measured prior to and 15, 30, and 60 minutes after drug administration. The post-drug threshold is compared to the pre-drug threshold and the percent reversal of tactile sensitivity is calculated based on a normal threshold of 15.1 grams.
Table 1 below indicates the degree of pain reversal obtained in the Chung model with exemplary compounds of the invention. […]

[2] = system: spleen size; assay: Immunostimulation: splenic size after systemic administration; type: in vivo; conditions: animals dosed at 200 mg/kg; rats
Excerpt: An art accepted method for measuring immuno stimulation comprises systemic administration of compounds to assay for the ability to stimulate the immune system, possibly due to nonspecific upregulation of the hemolymphoreticular system. This upregulation could result in increased numbers of lymphocytes of both T- and B-cell lineage.

melting point: 159.6 °C
SMILES: N[C@@H](C(=O)N1CCCC1)[C@@H](O)c1cccnc1 (racemic) (as salt: hydrochloride) [Compound 20, DL-threo-2-Amino-3-hydroxy-3-(pyridin-3-yl)-1-(pyrrolidin-1-yl)propan-1-one dihydrochloride]

SMILES: N[C@@H](C(=O)N1CCCC1)[C@@H](O)c1ccncc1 (racemic) [Compound 22, DL-threo-2-Amino-3-hydroxy-3-(pyridin-4-yl)-1-(pyrrolidin-1-yl)propan-1-one dihydrochloride]
inhibition in vivo at 0.1 mg/kg ([1]; Rattus norvegicus, ip, 1 h, 100 μg/kg IP, read-out: Peak % Pain reversal: time post dose): 100%
inhibition in vivo at 3 mg/kg ([1]; Rattus norvegicus, po, 1 h, 3000 μg/kg PO, read-out: Peak % Pain reversal: time post dose): 100%
increase in spleen size [2]: twentyfive

SMILES: Cl.Cl.N[C@H](C(=O)N1CC[C@H](F)C1)[C@H](O)c1ccsc1 [Compound 256, (2S,3R)- & (2R,3S)-2-Amino-1-((S)-3-fluoropyrrolidin-1-yl)-3-hydroxy-3-(thiophen-3-yl)propan-1-one dihydrochlorides]
Peak % Pain reversal: time post dose ([1]; 300 μg/kg IP): 62% 60 min
